Source: ChEMBL document CHEMBL3044707, “Synthesis of some new glutamine linked 2,3-disubstituted quinazolinone derivatives as potent antimicrobial and antioxidant agents” (Med Chem Res, 2013)
Values after ≈ are worked out from the molar mass of the structure shown.

Legend:
Type in all cases: functional
Staphylococcus aureus [1] = test: Antimicrobial activity against Staphylococcus aureus NCIM 5021 assessed as diameter of growth inhibition zone at 10 ug/disk after 24 hr by paper disk diffusion method; settings: NCIM 5021, 24 h, read-out: DIZ
Bacillus subtilis [2] = test: Antimicrobial activity against Bacillus subtilis NCIM 2999 assessed as diameter of growth inhibition zone at 10 ug/disk after 24 hr by paper disk diffusion method; settings: NCIM 2999, 24 h, read-out: DIZ
Pseudomonas aeruginosa [3] = test: Antimicrobial activity against Pseudomonas aeruginosa NCIM 5029 assessed as diameter of growth inhibition zone at 10 ug/disk after 24 hr by paper disk diffusion method; settings: NCIM 5029, 24 h, read-out: DIZ
Bacillus subtilis [4] = test: Antimicrobial activity against Bacillus subtilis NCIM 2999 assessed as growth inhibition by agar streak dilution method
Pseudomonas aeruginosa [5] = test: Antimicrobial activity against Pseudomonas aeruginosa NCIM 5029 assessed as growth inhibition by agar streak dilution method
Escherichia coli [6] = test: Antimicrobial activity against Escherichia coli NCIM 2574 assessed as growth inhibition by agar streak dilution method
Escherichia coli [7] = test: Antimicrobial activity against Escherichia coli NCIM 2574 assessed as diameter of growth inhibition zone at 10 ug/disk after 24 hr by paper disk diffusion method; settings: NCIM 2574, 24 h, read-out: DIZ
Staphylococcus aureus [8] = test: Antimicrobial activity against Staphylococcus aureus NCIM 5021 assessed as growth inhibition by agar streak dilution method
Staphylococcus aureus [9] = test: Antimicrobial activity against Staphylococcus aureus NCIM 5021 assessed as diameter of growth inhibition zone at 100 ug/ml after 24 hr by paper disk diffusion method; settings: NCIM 5021, 24 h, read-out: DIZ
Pseudomonas aeruginosa [10] = test: Antimicrobial activity against Pseudomonas aeruginosa NCIM 5029 assessed as diameter of growth inhibition zone at 100 ug/ml after 24 hr by paper disk diffusion method; settings: NCIM 5029, 24 h, read-out: DIZ
[11] = test system: Radical scavenging activity; test: Antioxidant activity assessed as DPPH radical scavenging activity by visible spectrophotometric analysis
[12] = Antioxidant activity assessed as inhibition of Fe3+/ascorbic acid-induced hydroxyl radical production-mediated 2-deoxyribose degradation after 1 hr
Aspergillus flavus [13] = test: Antimicrobial activity against Aspergillus flavus NCIM 524 assessed as growth inhibition by agar streak dilution method
Bacillus subtilis [14] = test: Antimicrobial activity against Bacillus subtilis NCIM 2999 assessed as diameter of growth inhibition zone at 100 ug/ml after 24 hr by paper disk diffusion method; settings: NCIM 2999, 24 h, read-out: DIZ
Aspergillus flavus [15] = test: Antimicrobial activity against Aspergillus flavus NCIM 524 assessed as diameter of growth inhibition zone at 100 ug/ml after 48 hr by paper disk diffusion method; settings: NCIM 524, 48 h, read-out: DIZ
Escherichia coli [16] = test: Antimicrobial activity against Escherichia coli NCIM 2574 assessed as diameter of growth inhibition zone at 100 ug/ml after 24 hr by paper disk diffusion method; settings: NCIM 2574, 24 h, read-out: DIZ
Candida albicans [17] = test: Antimicrobial activity against Candida albicans NCIM 3102 assessed as diameter of growth inhibition zone at 100 ug/ml after 48 hr by paper disk diffusion method; settings: NCIM 3102, 48 h, read-out: DIZ
Candida albicans [18] = test: Antimicrobial activity against Candida albicans NCIM 3102 assessed as growth inhibition by agar streak dilution method
[19] = Antioxidant activity assessed as inhibition of xanthine-xanthine oxidase generated superoxide anion radical-mediated NBT reduction by spectrophotometric analysis
[20] = Antioxidant activity assessed as inhibition of NO radical production from sodium nitroprusside after 150 min by Griess reagent analysis
Candida albicans [21] = test: Antimicrobial activity against Candida albicans NCIM 3102 assessed as diameter of growth inhibition zone at 10 ug/disk after 48 hr by paper disk diffusion method; settings: NCIM 3102, 48 h, read-out: DIZ
Aspergillus flavus [22] = test: Antimicrobial activity against Aspergillus flavus NCIM 524 assessed as diameter of growth inhibition zone at 10 ug/disk after 48 hr by paper disk diffusion method; settings: NCIM 524, 48 h, read-out: DIZ

Structure (SMILES)	MIC (Bacillus subtilis [4]) [µg/mL]	MIC (Pseudomonas aeruginosa [5]) [µg/mL]	MIC (Escherichia coli [6]) [µg/mL]	MIC (Staphylococcus aureus [8]) [µg/mL]	zone of inhibition at 100 µg/mL (Staphylococcus aureus [9]) [mm]	zone of inhibition at 100 µg/mL (Pseudomonas aeruginosa [10]) [mm]	IC50 [11] [µg/mL]	IC50 [12] [µg/mL]	MIC (Aspergillus flavus [13]) [µg/mL]	zone of inhibition at 100 µg/mL (Bacillus subtilis [14]) [mm]	zone of inhibition at 100 µg/mL (Aspergillus flavus [15]) [mm]	zone of inhibition at 100 µg/mL (Escherichia coli [16]) [mm]	zone of inhibition at 100 µg/mL (Candida albicans [17]) [mm]	MIC (Candida albicans [18]) [µg/mL]	IC50 [19] [µg/mL]	IC50 [20] [µg/mL]	other results
CN[C@@H]1[C@H](O[C@H]2[C@H](O[C@H]3[C@H](O)[C@@H](O)[C@H](N=C(N)N)[C@@H](O)[C@@H]3N=C(N)N)O[C@@H](C)[C@]2(O)C=O)O[C@@H](CO)[C@H](O)[C@H]1O [STREPTOMYCIN]	5 (≈ 8.6 µM)	5 (≈ 8.6 µM)	5 (≈ 8.6 µM)	5 (≈ 8.6 µM)	–	–	–	–	–	–	–	–	–	–	–	–	zone of inhibition at 10 µg/disc (Staphylococcus aureus [1]): 14.1 mm; zone of inhibition at 10 µg/disc (Bacillus subtilis [2]): 13.4 mm; zone of inhibition at 10 µg/disc (Pseudomonas aeruginosa [3]): 14 mm; zone of inhibition at 10 µg/disc (Escherichia coli [7]): 16.5 mm
NC(CCC(=O)n1c(-c2ccc(F)c(F)c2F)nc2ccccc2c1=O)C(=O)O (stereo not drawn)	8 (≈ 19.7 µM)	10 (≈ 24.7 µM)	12 (≈ 29.6 µM)	8 (≈ 19.7 µM)	13.2	14.8	29.7 (≈ 73.3 µM)	55.1 (≈ 136 µM)	15 (≈ 37 µM)	13.5	14.4	12.7	13.6	10 (≈ 24.7 µM)	48.2 (≈ 119 µM)	–	–
NC(CCC(=O)n1c(OCc2ccccc2Cl)nc2ccccc2c1=O)C(=O)O (stereo not drawn)	50 (≈ 120 µM)	50 (≈ 120 µM)	50 (≈ 120 µM)	30 (≈ 72.1 µM)	12	13	26.1 (≈ 62.8 µM)	27.7 (≈ 66.6 µM)	40 (≈ 96.2 µM)	14	11	10	13.7	25 (≈ 60.1 µM)	31.4 (≈ 75.5 µM)	38.7 (≈ 93.1 µM)	–
OC(Cn1cncn1)(Cn1cncn1)c1ccc(F)cc1F [FLUCONAZOLE]	–	–	–	–	–	–	–	–	5 (≈ 16.3 µM)	–	–	–	–	5 (≈ 16.3 µM)	–	–	zone of inhibition at 10 µg/disc (Candida albicans [21]): 16 mm; zone of inhibition at 10 µg/disc (Aspergillus flavus [22]): 19 mm
Cc1ccccc1-c1nc2ccccc2c(=O)n1C(=O)CCC(N)C(=O)O (stereo not drawn)	30 (≈ 82.1 µM)	30 (≈ 82.1 µM)	50 (≈ 137 µM)	50 (≈ 137 µM)	11	11	24.9 (≈ 68.1 µM)	30.4 (≈ 83.2 µM)	25 (≈ 68.4 µM)	12	15	10	12	25 (≈ 68.4 µM)	–	29.1 (≈ 79.6 µM)	–
O=C1O[C@H]([C@@H](O)CO)C(O)=C1O [ASCORBIC ACID]	–	–	–	–	–	–	12.6 (≈ 71.5 µM)	–	–	–	–	–	–	–	–	–	–
NC(CCC(=O)n1c(-c2ccc(O)cc2)nc2ccccc2c1=O)C(=O)O (stereo not drawn)	25 (≈ 68.1 µM)	50 (≈ 136 µM)	50 (≈ 136 µM)	25 (≈ 68.1 µM)	13	13	14.3 (≈ 38.9 µM)	17.8 (≈ 48.5 µM)	40 (≈ 109 µM)	9	15	15	9	40 (≈ 109 µM)	15.2 (≈ 41.4 µM)	15.2 (≈ 41.4 µM)	–
NC(CCC(=O)n1c(-c2cc(F)cc(F)c2)nc2ccccc2c1=O)C(=O)O (stereo not drawn)	15 (≈ 38.7 µM)	25 (≈ 64.5 µM)	50 (≈ 129 µM)	13 (≈ 33.6 µM)	11	14	27.4 (≈ 70.7 µM)	38.1 (≈ 98.4 µM)	25 (≈ 64.5 µM)	16	10.4	12	11	15 (≈ 38.7 µM)	45.7 (≈ 118 µM)	–	–
NC(CCC(=O)n1c(-c2ccc(Cl)cc2)nc2ccccc2c1=O)C(=O)O (stereo not drawn)	11.2 (≈ 29 µM)	15 (≈ 38.9 µM)	15 (≈ 38.9 µM)	10 (≈ 25.9 µM)	13	12	37.1 (≈ 96.2 µM)	49 (≈ 127 µM)	15 (≈ 38.9 µM)	12.7	12.1	11.5	13.6	12 (≈ 31.1 µM)	41.8 (≈ 108 µM)	41.8 (≈ 108 µM)	–
Nc1ccc(-c2nc3ccccc3c(=O)n2C(=O)CCC(N)C(=O)O)cc1 (stereo not drawn)	30 (≈ 81.9 µM)	50 (≈ 136 µM)	50 (≈ 136 µM)	25 (≈ 68.2 µM)	10	16	17.5 (≈ 47.8 µM)	18 (≈ 49.1 µM)	50 (≈ 136 µM)	13	11	15	12.5	50 (≈ 136 µM)	–	19.4 (≈ 53 µM)	–
NC(CCC(=O)n1c(-c2cc(F)ccc2F)nc2ccccc2c1=O)C(=O)O (stereo not drawn)	12.5 (≈ 32.3 µM)	35 (≈ 90.4 µM)	30 (≈ 77.5 µM)	12.5 (≈ 32.3 µM)	14	17	34.9 (≈ 90.1 µM)	41.8 (≈ 108 µM)	15 (≈ 38.7 µM)	12	10.9	11	11.4	10 (≈ 25.8 µM)	50.8 (≈ 131 µM)	–	–
COc1ccc(-c2nc3ccccc3c(=O)n2C(=O)CCC(N)C(=O)O)cc1 (stereo not drawn)	50 (≈ 131 µM)	25 (≈ 65.6 µM)	20 (≈ 52.4 µM)	30 (≈ 78.7 µM)	14	13	18.4 (≈ 48.2 µM)	23.4 (≈ 61.4 µM)	15 (≈ 39.3 µM)	10	14	11	10	25 (≈ 65.6 µM)	20.1 (≈ 52.7 µM)	20.1 (≈ 52.7 µM)	–
NC(CCC(=O)n1c(Cc2ccccc2)nc2ccccc2c1=O)C(=O)O (stereo not drawn)	50 (≈ 137 µM)	> 100	> 100	50 (≈ 137 µM)	10	11	26.6 (≈ 72.8 µM)	29.8 (≈ 81.6 µM)	75 (≈ 205 µM)	7	10.2	11	14	100 (≈ 274 µM)	31.6 (≈ 86.5 µM)	36.2 (≈ 99.1 µM)	–
NC(CCC(=O)n1c(-c2ccccc2)nc2ccccc2c1=O)C(=O)O (stereo not drawn)	50 (≈ 142 µM)	75 (≈ 213 µM)	50 (≈ 142 µM)	45 (≈ 128 µM)	11	12	29.7 (≈ 84.5 µM)	31.2 (≈ 88.8 µM)	25 (≈ 71.2 µM)	11	10	15	14	30 (≈ 85.4 µM)	–	36 (≈ 102 µM)	–
NC(CCC(=O)n1c(-c2ccc([N+](=O)[O-])cc2)nc2ccccc2c1=O)C(=O)O (stereo not drawn)	12.5 (≈ 31.5 µM)	25 (≈ 63.1 µM)	25 (≈ 63.1 µM)	9.6 (≈ 24.2 µM)	14	11	36.4 (≈ 91.8 µM)	39 (≈ 98.4 µM)	12.5 (≈ 31.5 µM)	16	13.6	9	14.1	10 (≈ 25.2 µM)	–	49 (≈ 124 µM)	–
